Reference: patent publication US20140322434A1, “METHODS FOR PRODUCING ELECTROPHOTOGRAPHIC PHOTOSENSITIVE MEMBER AND ORGANIC DEVICE EACH HAVING CHARGE TRANSPORTING LAYER” (CANON KABUSHIKI KAISHA, priority 2011, published 2014)
Read-outs that look alike come from different tables or passages of the source.

Tests used:
[1] = Solubility of second liquid in the first liquid at 25° C. and 1 atm; details: for Solubility in first liquid: first liquid described in Table 1; for solubility in first solution: liquids of Comparative Examples 5 to 11
[2] = Solubility in water at 25° C. and 1 atm
Procedure: In the method for producing an electrophotographic photosensitive member of the present invention, the charge transporting substance and the binder resin are dissolved in the first liquid to prepare the first solution. […] Specific examples of the first liquid are shown in Table 1, but are not limited to the examples in Table 1.
Then, the second solution will be described.

[3] = second liquid, 25° C. and 1 atm
[4] = liquids of Comparative Examples 5 to 11, 25° C. and 1 atm

Row | SMILES | Solubility in first liquid [1] | further results
1 | CCCOCC(C)O (stereo not drawn) [Second liquid example (14), propylene glycol monopropyl ether] | 5.0 mass % or | 
2 | C1CCOOC1 [Second liquid example (3), 1,2-dioxane] | 5.0 mass % or | 
3 | CCCCOCC(C)O (stereo not drawn) [Second liquid example (24), propylene glycol monobutyl ether] | 5.0 mass % or | Solubility in water [2, 3]: 6.4 mass %
4 | CCCC(C)=O [Second liquid example (8), 2-pentanone] | 5.0 mass % or | Solubility in water [2, 3]: 5.9 mass %
5 | COCOC [Second liquid example (2), dimethoxymethane] | 5.0 mass % or | Solubility in water [2, 3]: 32.3 mass %
6 | Clc1ccccc1 [First liquid example (4), Chlorobenzene] |  | Solubility in water ([2]; first liquid, 25° C. and 1 atm): 0.1 mass %
7 | CC(=O)OC(C)C [Liquid (4), isopropyl acetate, reference compound] |  | Solubility in water [2]: 2.9 mass %
8 | COCC(C)OC(C)=O (stereo not drawn) [Second liquid example (25), propylene glycol monomethyl ether acetate] | 5.0 mass % or | Solubility in water [2, 3]: 20.5 mass %
9 | CCOCCOCCOC [Second liquid example (26), diethylene glycol methyl ethyl ether] | 5.0 mass % or | 
10 | COCC(C)OCC(C)OC (stereo not drawn) [Second liquid example (28), dipropylene glycol dimethyl ether] | 5.0 mass % or | 
11 | CCCCOCC(C)O (stereo not drawn) [Second liquid example (13), propylene glycol n-butyl ether] | 5.0 mass % or | Solubility in water [2, 3]: 6.0 mass %
12 | COCCOC [Second liquid example (12), ethylene glycol dimethyl ether] | 5.0 mass % or | 
13 | CCOc1ccccc1 [First liquid example (7), Phenetole] |  | Solubility in water ([2]; first liquid, 25° C. and 1 atm): 0.1 mass %
14 | CCOCCOCCOCC [Second liquid example (27), diethylene glycol diethyl ether] | 5.0 mass % or | 
15 | CCCCOC(C)COC(C)COC(C)CO (stereo not drawn) [Liquid (5), tripropylene glycol n-butyl ether, reference compound] |  | solubility in first solution [1]: ≥ 5.0 mass %; Solubility in water [2, 4]: 2.9 mass %
16 | C=CCOCCO [Second liquid example (20), ethylene glycol monoallyl ether] | 5.0 mass % or | 
17 | COC(C)CCO (stereo not drawn) [Second liquid example (33), 3-methoxybutanol] | 5.0 mass % or | 

Row | SMILES | Solubility in first liquid [1] | further results
18 | CC(C)COCCO [Second liquid example (19), ethylene glycol monoisobutyl ether] | 5.0 mass % or | 
19 | COCC(C)O (stereo not drawn) [Second liquid example (21), propylene glycol monomethyl ether] | 5.0 mass % or | 
20 | COCCOCCOC [Second liquid example (11), diethylene glycol dimethyl ether] | 5.0 mass % or | 
21 | C1OCOCO1 [Second liquid example (6), 1,3,5-trioxane] | 5.0 mass % or | Solubility in water [2, 3]: 21.1 mass %
22 | OCCOCCOc1ccccc1 [Liquid (2), diethylene glycol monophenyl ether, reference compound] |  | solubility in first solution [1]: ≥ 5.0 mass %; Solubility in water [2, 4]: 3.4 mass %
23 | CCOCCOCCO [Second liquid example (16), diethylene glycol monoethyl ether] | 5.0 mass % or | 
24 | Clc1ccccc1Cl [First liquid example (3), o-Dichlorobenzene] |  | Solubility in water [2]: 0.0 mass %
25 | COC(C)COC(C)CO (stereo not drawn) [Second liquid example (22), dipropylene glycol monomethyl ether] | 5.0 mass % or | 
26 | CC(=O)OCC(C)OC(C)=O (stereo not drawn) [Second liquid example (29), propylene glycol diacetate] | 5.0 mass % or | 
27 | CCc1ccccc1 [First liquid example (6), Ethylbenzene] |  | Solubility in water ([2]; first liquid, 25° C. and 1 atm): 0.0 mass %
28 | CCOC(C)=O [Second liquid example (31), ethyl acetate] | 5.0 mass % or | 
29 | COC(C)COC(C)COC(C)CO (stereo not drawn) [Second liquid example (23), tripropylene glycol monomethyl ether] | 5.0 mass % or | 
30 | CC(=O)OCCCCOC(C)=O [Liquid (6), 1,4-butanediol diacetate, reference compound] |  | solubility in first solution [1]: ≥ 5.0 mass %; Solubility in water [2, 4]: 4.2 mass %
31 | Cc1ccccc1C [First liquid example (5), o-Xylene] |  | Solubility in water ([2]; first liquid, 25° C. and 1 atm): 0.0 mass %
32 | C1COCOC1 [Second liquid example (4), 1,3-dioxane] | 5.0 mass % or | 
33 | COC(C)CCOC(C)=O (stereo not drawn) [Second liquid example (34), 3-methoxybutyl acetate] | 5.0 mass % or | 
